Reference: US9505781B2, “Compositions comprising thienopyrimidine and thienopyridine compounds and methods of use thereof” (The Regents of the University of Michigan, priority 2013, dated 2016)

Target: T1, menin-MLL interaction (Homo sapiens, UniProt O00255)
T1 sequence (O00255 1-610): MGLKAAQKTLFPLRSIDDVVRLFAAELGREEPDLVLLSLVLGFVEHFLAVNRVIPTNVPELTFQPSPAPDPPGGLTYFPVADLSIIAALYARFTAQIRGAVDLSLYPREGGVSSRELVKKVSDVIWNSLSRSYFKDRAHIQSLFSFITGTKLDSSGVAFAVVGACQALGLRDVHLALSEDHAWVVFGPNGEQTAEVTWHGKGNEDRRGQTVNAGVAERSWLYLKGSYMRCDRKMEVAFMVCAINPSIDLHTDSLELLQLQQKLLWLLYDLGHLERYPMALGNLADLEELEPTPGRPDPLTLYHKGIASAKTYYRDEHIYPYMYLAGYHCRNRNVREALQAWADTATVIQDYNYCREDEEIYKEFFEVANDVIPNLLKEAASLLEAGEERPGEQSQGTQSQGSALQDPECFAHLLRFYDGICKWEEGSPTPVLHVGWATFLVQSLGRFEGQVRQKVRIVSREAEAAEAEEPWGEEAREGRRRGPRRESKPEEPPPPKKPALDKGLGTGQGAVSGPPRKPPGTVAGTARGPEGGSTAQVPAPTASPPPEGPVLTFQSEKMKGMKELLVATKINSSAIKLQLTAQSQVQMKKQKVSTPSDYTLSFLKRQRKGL
Test: biochemical
Excerpt: Compounds that inhibit the interaction decrease the fluorescence anisotropy which is being used as a read-out for compound screening and for IC50 determination.

Row | SMILES | IC50 [nM]
1 | N#Cc1[nH]c2ccc(CN3CCC(Nc4ncnc5sc(CC(F)(F)F)cc45)CC3)cc2c1N [Compound 233] | 100 to 500
2 | FC(F)(F)Cc1cc2c(NCC3CCN(Cc4ccccc4C(F)(F)F)CC3)ncnc2s1 [Compound 274] | 500 to 2000
3 | Cc1ccc(CN2CCC(CNc3ncnc4sc(CC(F)(F)F)cc34)CC2)cc1 [Compound 275] | 500 to 2000
4 | OCc1cc(O)ccc1CN1CCC(Nc2ncnc3sc(CC(F)(F)F)cc23)CC1 [Compound 107] | 100 to 500
5 | CS(=O)(=O)N1CCC[C@H]1CN[C@@H]1CN(Cc2ccccc2)CC[C@H]1Nc1ncnc2sc(CC(F)(F)F)cc12 [Compound 173] | 100 to 500
6 | Cc1ccccc1CN1CCC(Nc2ncnc3sc(CC(F)(F)F)cc23)CC1 [Compound 117] | 100 to 500
7 | N#CCc1ccc2[nH]cc(CN3CCC(Nc4ncnc5sc(CC(F)(F)F)cc45)CC3)c2c1 [Compound 252] | 500 to 2000
8 | FC(F)(F)Cc1cc2c(N3CCN(c4nnc(CC(F)(F)F)s4)CC3)ncnc2s1 [Compound 8] | 100 to 500
9 | O=C(N1CCCCC1)N1CCN(c2ncnc3sc(CC(F)(F)F)cc23)CC1 [Compound 91] | 500 to 2000
10 | OCCCN(c1ncnc2sc(CC(F)(F)F)cc12)C1CCN(Cc2ccccc2)CC1 [Compound 127] | 100 to 500
11 | CCCc1cc2c(NC3CCN(Cc4ccc(C)cc4)CC3)ncnc2s1 [Compound 151] | 500 to 2000
12 | O=C(Cc1ccc(F)cc1)N1CCN(c2ncnc3sc(CC(F)(F)F)cc23)CC1 [Compound 75] | 100 to 500
13 | FC(F)(F)Cc1cc2c(N[C@@H]3[C@@H]4CC[C@H]3CN(Cc3ccccc3)C4)ncnc2s1 [Compound 135] | 100 to 500
14 | FC(F)(F)c1nnc(N2CCN(c3ncnc4sc(C(F)(F)C(F)(F)F)cc34)CC2)s1 [Compound 24] | 500 to 2000
15 | NS(=O)(=O)Cc1ccc(CC(=O)N2C[C@@H]3CC[C@H]2CN3c2ncnc3sc(CC(F)(F)F)cc23)cc1 [Compound 97] | 500 to 2000
16 | FC(c1cc2c(N3CCN(c4nnc(C(F)(F)F)s4)CC3)ncnc2s1)C(F)(F)F (centres unmarked) [Compound 21] | 500 to 2000
17 | CCOc1c(CN2CCC(Nc3ncnc4sc(CC(F)(F)F)cc34)CC2)ccc2c1cc(C#N)n2CC(N)=O [Compound 409] | 100 to 500
18 | O=C(Cc1ccccc1Cl)N1CCN(c2ncnc3sc(CC(F)(F)F)cc23)CC1 [Compound 70] | 100 to 500
19 | O=CN1CCCC1CN[C@H]1CN(Cc2ccccc2)CC[C@@H]1Nc1ncnc2sc(CC(F)(F)F)cc12 (some centres unmarked) [Compound 170] | 100 to 500
20 | CC(=O)c1ccc(CN2CCC(CNc3ncnc4sc(CC(F)(F)F)cc34)CC2)cc1 [Compound 270] | 500 to 2000
21 | O=C(Cc1ccc(NS(=O)(=O)CC(F)(F)F)cc1Cl)N1CCN(C2=NC=NC3SC(CC(F)(F)F)=CC23)CC1 (centres unmarked) [Compound 287] | 500 to 2000
22 | COc1c(CN2CCC(Nc3ncnc4sc(CC(F)(F)F)cc34)CC2)ccc2[nH]c(C#N)cc12 [Compound 180, 4-methoxy-5-((4-((6-(2,2,2-trifluoroethyl)thieno[2,3-d]pyrimidin-4-yl)amino)piperidin-1-yl)methyl)-1H-indole-2-carbonitrile] | < 100
23 | N#Cc1cc2cc(CN3CCC(Nc4ncnc5sc(CC(F)(F)F)cc45)CC3)ccc2n1CC(CO)OC(F)F (centres unmarked) [Compound 297] | < 100
24 | CN(c1ccc(CC(=O)N2CCN(c3ncnc4sc(CC(F)(F)F)cc34)CC2)cc1)S(C)(=O)=O [Compound 46] | < 100
25 | N#Cc1cc2cc(CN3CCC(Nc4ncnc5sc(CC(F)(F)F)cc45)CC3)c(O)cc2n1Cc1cn[nH]c1 [Compound 382] | < 100
26 | Oc1cccc(CN2CCC(Nc3ncnc4sc(CC(F)(F)F)cc34)CC2)c1 [Compound 109] | 100 to 500
27 | COc1cc2[nH]c(C#N)cc2cc1CN1CCC(Nc2ncnc3sc(CC(F)(F)F)cc23)CC1 [Compound 181, 6-methoxy-5-((4-((6-(2,2,2-trifluoroethyl)thieno[2,3-d]pyrimidin-4-yl)amino)piperidin-1-yl)methyl)-1H-indole-2-carbonitrile] | < 100

Next, values leading:

Row | IC50 [nM] | SMILES
28 | < 100 | N#Cc1cc2cc(CN3CCC(Nc4ncnc5sc(CC(F)(F)F)cc45)CC3)ccc2n1Cc1cnn(CCOCC2CC2)c1 [Compound 318]
29 | < 100 | Cc1c(CN2CCC(Nc3ncnc4sc(CC(F)(F)F)cc34)CC2)ccc2c1cc(C#N)n2CCN1CCN[C@@H](C)C1 [Compound 367]
30 | < 100 | N#Cc1cc2cc(CN3CCC(Nc4ncnc5sc(CC(F)(F)F)cc45)CC3)ccc2n1CC(O)(CO)COCC1CCCCC1 (centres unmarked) [Compound 317]
31 | < 100 | N#Cc1cc2cc(CN3CCC(Nc4ncnc5sc(CC(F)(F)F)cc45)CC3)ccc2n1CCO [Compound 179]
32 | < 100 | CCS(=O)(=O)Nc1ccc(CC(=O)N2CCN(c3ncnc4sc(CC(F)(F)F)cc34)CC2)cc1 [Compound 49]
33 | < 100 | N#Cc1cc2c(CCO)c(CN3CCC(Nc4ncnc5sc(CC(F)(F)F)cc45)CC3)ccc2[nH]1 [Compound 296]
34 | < 100 | Cc1cn[nH]c1Cn1c(C#N)cc2c(C)c(CN3CCC(Nc4ncnc5sc(CC(F)(F)F)cc45)CC3)ccc21 [Compound 330]
35 | < 100 | Cc1c(CN2CCC(Nc3ncnc4sc(CC(F)(F)F)cc34)CC2)ccc2c1cc(C#N)n2CCN1CCN(C(=O)CCC2CC2)CC1 [Compound 344]
36 | < 100 | CCOc1cc2c(cc1CN1CCC(Nc3ncnc4sc(CC(F)(F)F)cc34)CC1)cc(C#N)n2CC(N)=O [Compound 216]
37 | < 100 | Cc1c(CN2CCC(Nc3ncnc4sc(CC(F)(F)F)cc34)CC2)ccc2c1cc(C#N)n2CCN1CCCCC1 [Compound 329]
38 | < 100 | Cc1c(CN2CCC(Nc3ncnc4sc(CC(F)(F)F)cc34)CC2)ccc2c1cc(C#N)n2CCO [Compound 299]
39 | < 100 | N#Cc1cc2cc(CN3CCC(Nc4c(CO)cnc5sc(CC(F)(F)F)cc45)CC3)ccc2[nH]1 [Compound 278]
40 | < 100 | CC(=O)NCCC(O)(CO)Cn1c(C#N)cc2c(C)c(CN3CCC(Nc4ncnc5sc(CC(F)(F)F)cc45)CC3)ccc21 (centres unmarked) [Compound 371]
41 | < 100 | N#Cc1cc2nc(CN3CCC(Nc4ncnc5sc(CC(F)(F)F)cc45)CC3)ccc2[nH]1 [Compound 424]
42 | < 100 | Cc1c(CN2CCC(Nc3ncnc4sc(CC(F)(F)F)cc34)CC2)ccc2c1cc(C#N)n2Cc1ncco1 [Compound 353]
43 | < 100 | N#Cc1cc2cc(CN3CCC(Nc4ncnc5sc(CC(F)(F)F)cc45)CC3)ccc2n1CC(CO)OCC1CCCCC1 (centres unmarked) [Compound 320]
44 | < 100 | CS(=O)(=O)Cc1ccc(CC(=O)N2CCN(c3ncnc4sc(CC(F)(F)F)cc34)CC2)cc1 [Compound 43]
45 | < 100 | N#Cc1cc2c(C=O)c(CN3CCC(Nc4ncnc5sc(CC(F)(F)F)cc45)CC3)ccc2n1Cc1cn[nH]c1 [Compound 352]
46 | < 100 | CC1(C)CN=C(N2C[C@@H]3CC[C@H]2CN3c2ncnc3sc(CC(F)(F)F)cc23)S1 [Compound 2]
47 | < 100 | COc1cc2c(cc(C#N)n2CC(N)=O)c(C)c1CN1CCC(Nc2ncnc3sc(CC(F)(F)F)cc23)CC1 [Compound 385]
48 | < 100 | CNS(=O)(=O)Nc1ccc(CC(=O)N2CCN(c3ncnc4sc(CC(F)(F)F)cc34)CC2)cc1 [Compound 48]
49 | < 100 | Cc1ncc(Cn2c(C#N)cc3c(C)c(CN4CCC(Nc5ncnc6sc(CC(F)(F)F)cc56)CC4)ccc32)s1 [Compound 323]
50 | < 100 | Cc1c(CN2CCC(Nc3ncnc4sc(CC(F)(F)F)cc34)CC2)ccc2c1cc(C#N)n2CCN1CCNC(C)C1 (centres unmarked) [Compound 369]
